What was measured:
[1] = tested on: lignées de lymphomes de souris; assay: In vivo activity against mouse lymphoma lines; conditions: certain mouse lymphoma lines
[2] = tested on: Cellules d'embryon de poulet; assay: Cell growth inhibition, normal cells: chick embryo cells; format: cell-based
[3] = tested on: Fibroblastes humains MRC 5; assay: Cell growth inhibition, normal cells: MRC 5 fibroblasts; format: cell-based
[4] = tested on: Cellules de la membrane amniotique humaine; assay: Cell growth inhibition / toxicity, normal cells: human amniotic membrane cells; format: cell-based
[5] = tested on: Cellules de rein de rat NRK B 77; assay: Cell growth inhibition, transformed cells: NRK B 77; format: cell-based
Excerpt: (§1) Les tableaux 1 et 2 ci-après donnent le résultat de ces tests qui portent sur trois types de cellules transformées. Les chiffres indiqués représentent le pourcentage d'inhibition de la croissance de cellules traitées par des doses de plus en plus fortes de composé 6a (chlorhydrate) par rapport à celles des mêmes cellules non traitées.

NRK LA31 à 33° = assay: Cell growth inhibition, transformed cells: NRK LA31 at 33°; format: cell-based, rat
Excerpt: as §1

Cellules HeLa humaines = assay: Cell growth inhibition, transformed cells: HeLa; format: cell-based
Excerpt: as §1

Hepatomes de rat = assay: Cell growth inhibition, transformed cells: rat hepatomas; format: cell-based
Excerpt: as §1

[6] = tested on: cellules de mélanomes humains M3 DAU; assay: Complementary in vitro test, dead cells after four days of growth: melanoma M3 DAU; format: cell-based; conditions: untreated 6, 5760 min
Excerpt: as §1

[7] = tested on: cellules de mélanomes humains M1 DOR; assay: Complementary in vitro test, dead cells after four days of growth: melanoma M1 DOR; format: cell-based; conditions: untreated 24, 5760 min
cellules NRK (normales) = assay: Growth inhibition in tissue culture, normal NRK cells; format: cell-based; conditions: 6a solutions made by the second method (example 2) compared with product of example 1
[8] = tested on: Cellules d'embryon de poulet; assay: Transformation of chick embryo cells induced by Rous sarcoma virus; format: cell-based
Excerpt: (§2) Le produit est efficace contre la transformation des cellules d'embryon de poulet induite par le virus du sarcome de ROUS.

virus du sarcome de ROUS = assay: Replication of Rous sarcoma virus; format: cell-based
Excerpt: as §2

[9] = Acute toxicity (DL50) in mice; design: species or system souris swiss; conditions: mouse, in vivo, two independent measurements
Method: (§3) Les tests dont les résultats sont donnés ci-dessous ont été réalisés avec des solutions du composé 6a (sous forme de chlorhydrate). Dans ces tests, on a étudié l'activité vis à vis de la croissance tumorale (carcinome et mélanome) et la survie de souris swiss auxquelles ont été injectées des quantités variables de cellules d'ascites de Krebs.
Toxicité aigüe : La DL50 du composé 6a (chlorhydrate) déterminée sur ces souris par deux mesures indépendantes est de 60 mg/kg.

[10] = tested on: clone FAZA 967 de l'hépatome de rat REUBER H 35; assay: Toxicity on hepatoma clone FAZA 967 (LDH, GOT, GPT assayed in the medium); format: cell-based
[11] = tested on: mélanome DAU d'origine humaine; assay: In vivo tumour growth: human melanoma DAU in nude mice; design: species or system souris nude; souris traitées présentant un retard dans le développement tumoral: unit not given here; conditions: 5.10^5 melanoma DAU cells; 2 x 15 mg/kg on day 1, 2 x 6 mg/kg days 2 to 7; versus untreated controls
Method: (§4) Deux types de tumeurs ont été utilisés : • - un carcinome de Lewis (sur souris swiss), • - un mélanome DAU d'origine humaine (sur souris nude).
Les souris ont reçu une injection de 5.10^5 cellules de mélanome DAU Celles traitées ont reçu : • - 2 x 15 mg/kg le premier jour, • - 2 x 6 mg/kg du deuxième au septième jour.

carcinome de Lewis = assay: In vivo tumour growth: Lewis carcinoma in mice; design: species or system souris swiss; conditions: 3.10^5 Lewis carcinoma cells; daily 6 mg/kg or 12 mg/kg
Excerpt: as §4
Le test est effectué sur des souris auxquelles 3.10^5 cellules de carcinome de Lewis ont été inoculées.

[12] = tested on: cellules d'ascites de KREBS (carcinome); assay: Survival of mice injected with Krebs ascites cells; format: in vivo, souris swiss; design: taux de survie: unit not given here
Excerpt: as §3
Les résultats des tests ont été obtenus principalement à partir de souris' auxquelles ont été injectées des cellules d'ascites de KREBS (carcinome) dont l'origine a été décrite par G. KLEIN et E. KLEIN Cancer Research 1951-11-466.

[13] = tested on: cellules de leucémie L1210; assay: Survival of mice inoculated with leukaemia L1210 cells; format: in vivo, souris; conditions: 3.10^5 L1210 cells; 6 mg/kg for 7 days
Excerpt: Une étude a aussi été faite sur des souris auxquelles avaient été inoculées 3.10^5 cellules de leucémie L1210.

Stability of solutions = format: physicochemical; conditions: concentrated solutions
Excerpt: Il convient de préciser que les solutions concentrées du produit 6a sont instables. Le produit est conservé sous forme de solutions diluées, par exemple le chlorhydrate peut être conservé en solution aqueuse diluée.

[14] = concentration 1,5.10^-3 (unit not given)
[15] = concentration 2.10^-3 (unit not given)
[16] = concentration 3.10^-3 (unit not given)
[17] = concentration 4.10^-3 (unit not given)
[18] = concentration 5.10^-3 (unit not given)

CCOC(C#CC(C)(C)N)OCC [composé 9a]
activité in vivo [1]: actif sélectivement

CC(C)(N)C#CC=O [composé 6a]
% d'inhibition de la croissance cellulaire ([2]; 1.10^-4 M): 0%
% d'inhibition de la croissance cellulaire ([2]; 2.10^-4 M): 0%
% d'inhibition de la croissance cellulaire ([2]; 4.10^-4 M): 10%
% d'inhibition de la croissance cellulaire ([2]; 5.10^-5 M): 0%
% d'inhibition de la croissance cellulaire ([2]; 6.10^-4 M): 12%
% d'inhibition de la croissance cellulaire ([3]; 1.10^-4 M): 0%
% d'inhibition de la croissance cellulaire ([3]; 2.10^-4 M): 0%
% d'inhibition de la croissance cellulaire ([3]; 4.10^-4 M): 0%
% d'inhibition de la croissance cellulaire ([3]; 5.10^-5 M): 0%
% d'inhibition de la croissance cellulaire ([3]; 6.10^-4 M): 18%
% d'inhibition de la croissance cellulaire ([4]; 6.10^-4 M): 0%
effet sur la croissance et sur la morphologie des cellules ([4]; concentrations de 5.10 et de 10^-4 mole-litre ^-1): aucun effet
% d'inhibition de la croissance cellulaire ([5]; 1.10^-4 M): 16%
% d'inhibition de la croissance cellulaire ([5]; 2.10^-4 M): 31%
% d'inhibition de la croissance cellulaire ([5]; 4.10^-4 M): 57%
% d'inhibition de la croissance cellulaire ([5]; 5.10^-5 M): 0%
inhibition de la croissance en culture de tissus ([5]; 6a solutions made by the second method (example 2) compared with product of example 1, NRK-B77 (transformées)): activité en tous points comparable à celle observée avec le produit de l'exemple 1
% d'inhibition de la croissance cellulaire ([5]; 6.10^-4 M): 79%
% d'inhibition de la croissance cellulaire (NRK LA31 à 33°; 1.10^-4 M): 0%
% d'inhibition de la croissance cellulaire (NRK LA31 à 33°; 2.10^-4 M): 11%
% d'inhibition de la croissance cellulaire (NRK LA31 à 33°; 4.10^-4 M): 63%
% d'inhibition de la croissance cellulaire (NRK LA31 à 33°; 5.10^-5 M): 0%
% d'inhibition de la croissance cellulaire (NRK LA31 à 33°; 6.10^-4 M): Mort
% d'inhibition de la croissance cellulaire (Cellules HeLa humaines; 1.10^-4 M): 18%
% d'inhibition de la croissance cellulaire (Cellules HeLa humaines; 2.10^-4 M): 36%
% d'inhibition de la croissance cellulaire (Cellules HeLa humaines; 4.10^-4 M): 78%
% d'inhibition de la croissance cellulaire (Cellules HeLa humaines; 5.10^-5 M): 0%
% d'inhibition de la croissance cellulaire (Cellules HeLa humaines; 6.10^-4 M): 91%
% d'inhibition de la croissance cellulaire (Hepatomes de rat; 2.10^-4 M): 50%
% d'inhibition de la croissance cellulaire (Hepatomes de rat; 6.10^-4 M): 60%
% de cellules mortes après quatre jours de croissance [6, 14]: 24%
% de cellules mortes après quatre jours de croissance [6, 15]: 47%
% de cellules mortes après quatre jours de croissance [6, 16]: 92%
% de cellules mortes après quatre jours de croissance [6, 17]: 98%
% de cellules mortes après quatre jours de croissance [6, 18]: 98%
% de cellules mortes après quatre jours de croissance [7, 14]: 21%
% de cellules mortes après quatre jours de croissance [7, 15]: 28%
% de cellules mortes après quatre jours de croissance [7, 16]: 24%
% de cellules mortes après quatre jours de croissance [7, 17]: 26%
% de cellules mortes après quatre jours de croissance [7, 18]: 23%
inhibition de la croissance en culture de tissus (cellules NRK (normales)): activité en tous points comparable à celle observée avec le produit de l'exemple 1
efficacité contre la transformation des cellules induite par le virus du sarcome de ROUS [8]: efficace
réplication du virus (virus du sarcome de ROUS): n'est pas inhibée
LD50 [9]: 60 mg/kg
toxicité du produit, estimée par dosage dans le milieu des enzymes LDH, GOT et GPT [10]: aucune toxicité
retard dans le développement tumoral [11]: dizaine
souris traitées présentant un retard dans le développement tumoral [11]: 60
croissance tumorale (carcinome de Lewis): net ralentissement de la croissance tumorale
survie ([12]; 5.10^5 cells inoculated, 6 mg/kg for 7 days): provoque un retard dans la mort mais n'augmente pas le taux de survie
taux de survie ([12]; 5.10^5 cells inoculated, 6 mg/kg, treatment of 21 days): ≤ 90
survie ([12]; 5.10^5 cells, 2 x 15 mg/kg on day 1 then 2 x 6 mg/kg the 6 following days, compared with 21-day treatment): Le même effet
survie ([12]; 10 cellules (so in the source), 2 x 15 mg/kg on day 1 then 2 x 6 mg/kg the 6 following days): encore suffisants
survie ([12]; inoculation of 5.10^6 cells, 2 x 15 mg/kg on day 1 then 2 x 6 mg/kg the 6 following days): efficacité est moindre
survie ([12]; inoculation of 10 cellules (so in the source), 6 mg/kg daily for 7 days): guérison complète jusque 6 mois
survie [13]: le même effet que dans le cas du carcinome
stabilité des solutions (Stability of solutions): instables

Reference: patent publication EP0133407A1, “Acetylene derivatives having an enzyme-inhibiting activity, their preparation and their use as medicines” (Etablissement Public dit: CENTRE NATIONAL DE LA RECHERCHE …, priority 1983, dated 1985)
